Reference: publication PMC11887673, “Malformin C preferentially kills glioblastoma stem‐like cells via concerted induction of proteotoxic stress and autophagic flux blockade” (Molecular Oncology, 2024)
Bridge positions count the residues as written; N and C are the ends. Square brackets hold non-standard residues; d marks the D form. Peptide text beside a SMILES is read from it.

Columns and labels:
NCH421k [1] = assay: Assessment of synergy, combination cell viability (CellTiter-Glo); format: cell-based, human
Protocol: NCH421k cells were seeded in 96‐well white plates with 8500 cells per well in 40 μL medium. To determine control curves, cells were treated with 50 μL of a 2× concentration of TMZ or CQ and 10 μL of medium and incubated for 48 h. For drug combinations, cells were treated with 10 μL of a 10× concentration of malformin C and with 50 μL of a 2× concentration of TMZ or CQ. Cell viability was determined after 48 h using the CellTiter‐Glo® assay according to the manufacturer's instructions. Synergy was determined using […] at https://synergyfinder.org/ [35].

[2] = Pharmacokinetics in plasma and blood brain barrier penetration after i.v. administration; format: in vivo; conditions: RjOrl:Swiss CD-1, mouse, iv, male CD-1 mice, 0.5 mg·kg^−1 i.v., LC–MS
Protocol: Pharmacokinetic (PK) parameters in plasma and blood brain barrier penetration after intravenous administration of malformin C were evaluated by Pharmacelsus GmbH. Nine adult male RjOrl : Swiss CD‐1 mice were injected i.v. with 0.5 mg·kg^−1 malformin C. K‐EDTA plasma was obtained from the retrobulbar venous plexus under isoflurane anesthesia. The plasma samples were prepared within 45 min after collection, frozen at −20 °C, and stored at this temperature until processed for LC–MS analysis. For brain collection, mice were sacrificed by cervical dislocation, immediately after the last blood sample was obtained. Brains were dissected, frozen, and stored at −20 °C. PK analysis was performed using […] 5.0 Software, Allersberg, Germany. All experimental procedures were approved by and conducted in accordance with the regulations of the local Animal Welfare authorities (Landesamt für Gesundheit und Verbraucherschutz, Abteilung Lebensmittel‐und Veterinärwesen, Saarbrücken).

[3] = tested on: NOD scid gamma (NSG) mice; assay: Toxicity and tolerability of repeated doses; format: in vivo, mouse
Protocol: (§1) NCH421k GSCs were transduced with lentiviral particles carrying the pLenti PGK V5‐LUC Neo plasmid, which was a gift from Eric Campeau (Addgene plasmid # 21471) and transduced cells were selected using 400 μg·mL^−1 G418. Six‐week‐old female NOD.Cg‐Prkdc ^ scid Il2rg ^ tm1Wjl /SzJ (NOD‐SCIDγ) mice were obtained from the animal facility at the DKFZ. All animal experiments were performed according to animal welfare regulations and were approved by the responsible authorities (Regierungspräsidium Karlsruhe, approval number G289‐14). Animals were housed in a temperature‐controlled vivarium on a 12 h : 12 h light–dark cycle with ad libitum food and water, and all animals were monitored daily for health status and tumor‐related symptoms. […] Tumor growth was monitored using an IVIS Lumina Preclinical in vivo IMAGING SYSTEM AND LIVING IMAGE Software (version 2.50.1) (Perkin Elmer, Rodgau, Germany) and volume measurement using calipers once a week for 7 weeks, or until the tumor reached a volume of 500 mm^3.
(§2) Malformin C has been previously reported to induce fatal toxicity at doses of over 0.9 mg·kg^−1 in BDF1 mice, likely due to an acute inflammatory response. […] Seven days later, after engraftment of the cells was confirmed by the appearance of a luminescence signal, mice were treated with malformin C or DMSO (0.5 mg·kg^−1 3 × per week) for 37 days. […]

[4] = tested on: NCH421k GSCs expressing luciferase; assay: In vivo tumor propagation, flank xenograft; parameters: species or system NSG mice
Protocol: as §1, §2

NCH421k [5] = assay: Caspase 3/7 activation (Caspase Glo); format: cell-based, human; conditions: 50 nM, within 6–8 h, n = 3
Protocol: (§3) A total of 5000 cells were seeded into white 96‐well plates in a volume of 50 μL medium. Malformin C or Az‐mal. C was added to the medium at the indicated concentrations and incubated for the indicated times. Caspase 3/7 activity was measured using the Caspase Glo assay (Promega), according to the manufacturer's protocol.

NCH441 = assay: Caspase 3/7 activation (Caspase Glo); format: cell-based, human; conditions: 50 nM, within 6–8 h, n = 3
Protocol: as §3

fibroblasts (BJ) = assay: Caspase 3/7 activation (Caspase Glo); format: cell-based, human; conditions: 50 nM, 8 h, n = 3
Protocol: as §3

[6] = tested on: primary astrocytes (pAstro); assay: Caspase 3/7 activation (Caspase Glo); format: cell-based, human; conditions: 50 nM, 8 h, n = 3
Protocol: as §3

BDF1 mice = conditions: cited from earlier work
Protocol: Malformin C has been previously reported to induce fatal toxicity at doses of over 0.9 mg·kg^−1 in BDF1 mice, likely due to an acute inflammatory response. […] In a pharmacokinetic study, malfo ...

GSCs = assay: Cell viability, GSCs compared with normal or other cells; format: cell-based, human; conditions: 48 h, CellTiter-Glo
From the text: GSC lines NCH421k, NCH441, NCH644, NCH711d, and NCH705 were derived from newly diagnosed GB patients who underwent surgical resection according to the research proposals approved by the Institutional Review Board at the Medical Faculty of Heidelberg (license: Neurosurgery brain tissue 005/2003; samples collected between 2003 and 2010 at Heidelberg University Hospital from patients who gave informed written consent) and performed in accordance to the Declaration of Helsinki. The cells were cultivated in serum‐free stem cell medium up to maximum passage 60 as previously described. Human astrocytes originating from fetal cerebral cortex were purchased from ScienCell, Research Laboratories, Carlsbad, CA, USA (#1800) and cultured in DMEM (Sigma‐Aldrich, Steinheim, Germany) supplemented with 10% (v/v) FCS (Merck Millipore, Darmstadt, Germany), 1 mM sodium pyruvate, 1 × GlutaMAX, and 1 × N‐2 supplement (all Life Technologies, Darmstadt, Germany). Human fetal neural stem cells (HFNSCs) were kindly provided by Dr C Watts at the Department of Clinical Neurosciences, University of Cambridge. Tissue procurement was approved by the Cambridge Local Regional Ethics committee and in accordance with section 16(e) (ii) of the United Kingdom Human Tissue Act and the Declaration of Helsinki. They were established from 12‐ to 14‐week‐old human postmortem fetal tissue as described by Iovino et al. The cells were cultured as neurospheres in neural stem cell medium (DMEM/F‐12 medium, 2% (v/v) B27 supplement, at 20 ng·mL^−1 each of bFGF and EGF, 2.5 μg·mL^−1 heparin). BJ cells (RRID: CVCL_3653) (human fibroblasts) were purchased from ATCC and cultivated in DMEM low glucose supplemented with 10% FCS. […]
Cells were seeded in 96‐well plates at a density of 8500 cells per well. […] Cell viability was assessed by the CellTiter‐Glo® (Promega) luminescent cell viability assay. […] Data were normalized to the vehicle control, and four parameter logistic curves were fitted and IC50 values calculated using […] […]

## CCN(CC)CCCC(C)Nc1ccnc2cc(Cl)ccc12 (stereo not shown) [CQ, chloroquine]
NCH421k [1]
  synergy with malformin C (SynergyFinder, ZIP synergy score): much stronger
NCH421k [1]; Homo sapiens, 48 h, CQ 23.7 μM, Malformin C 0 nM, n = 3
  inhibition at 23.7 µM: 17%
NCH421k [1]; Homo sapiens, 48 h, CQ 31.6 μM, Malformin C 0 nM, n = 3
  inhibition at 31.6 µM: 32%
NCH421k [1]; Homo sapiens, 48 h, CQ 42.2 μM, Malformin C 0 nM, n = 3
  inhibition at 42.2 µM: 33%
NCH421k [1]; Homo sapiens, 48 h, CQ 75 μM, Malformin C 0 nM, n = 3
  inhibition at 75 µM: 99%

## Cn1nnc2c(C(N)=O)ncn2c1=O [TMZ, temozolomide]
NCH421k [1]
  synergy with malformin C (SynergyFinder, ZIP synergy score): synergistic effect
NCH421k [1]; Homo sapiens, 48 h, TMZ 80 μM, Malformin C 0 nM, n = 3
  inhibition at 80 µM: 2%
NCH421k [1]; Homo sapiens, 48 h, TMZ 160 μM, Malformin C 0 nM, n = 3
  inhibition at 160 µM: 6%
NCH421k [1]; Homo sapiens, 48 h, TMZ 310 μM, Malformin C 0 nM, n = 3
  inhibition at 310 µM: 6%
NCH421k [1]; Homo sapiens, 48 h, TMZ 500 μM, Malformin C 0 nM, n = 3
  inhibition at 500 µM: 22%
NCH421k [1]; Homo sapiens, 48 h, TMZ 1000 μM, Malformin C 0 nM, n = 3
  inhibition at 1000 µM: 47%

## CC(C)C[C@@H]1NC(=O)[C@@H](CC(C)C)NC(=O)[C@H](C(C)C)NC(=O)[C@H]2CSSC[C@@H](NC1=O)C(=O)N2 [malformin C] (cyclo(L[dC][dC]V[dL]); disulfide 2-3)
[2]; brain, by 1 h, read-out: equivalent molar concentration in the brain
  level at time molar at 1 h: ~1.9 nM
[2]; K-EDTA plasma, n=3 mice per time point
  half-life: 348 min
[3]; 0.5 mg·kg^−1 i.p. three times per week, NSG mice
  tolerability: tolerated well
[3]; immune-deficient NSG mice
  repeated doses causing intolerable toxicity: over 0.9 mg·kg^−1
[4]; 0.5 mg·kg^−1 i.p. 3 × per week, NSG mice, during the study
  weights of the mice: did not affect the weights of the mice
[4]; flank of NSG mice, 0.5 mg·kg^−1 i.p. 3 × per week for 37 days, monitored 49 days, n = 9 vs 8 DMSO
  tumor growth (luminescence, caliper volume): dramatically suppressed tumor growth
NCH421k [5]
  caspase 3/7 activation: significantly activated caspases
NCH441
  caspase 3/7 activation: significantly activated caspases
Fibroblasts (BJ)
  caspase 3/7 activation: not
[6]
  caspase 3/7 activation: not
BDF1 mice
  doses inducing fatal toxicity: over 0.9 mg·kg^−1

## CN[C@@H]1C[C@H]2O[C@@](C)([C@@H]1OC)n1c3ccccc3c3c4c(c5c6ccccc6n2c5c31)C(=O)NC4 [staurosporine]
GSCs
  loss of viability in GSCs compared with normal cells: similarly

## malformin A1
GSCs
  loss of viability in GSCs compared with normal cells: more potent against GSCs than normal cells

## tunicamycin
GSCs
  loss of viability in GSCs compared with normal cells: not more sensitive than astrocytes
